From paper PMC8838415, “Discovery of Novel Pleuromutilin Derivatives as Potent Antibacterial Agents for the Treatment of MRSA Infection” (Molecules, 2022)
Values after ≈ are worked out from the molar mass of the structure shown.

What was measured:
S. aureus (144) = experiment: MIC and MBC, broth dilution, S. aureus 144; assay type: cell-based; conditions: Staphylococcus aureus; S. aureus 144 (clinical strain)
Experimental: (§1) The synthesized pleuromutilin derivatives 8–30 were tested against four Gram-positive bacteria (MRSA ATCC 43300, S. aureus ATCC 29213 and two clinical strains of S. aureus (AD3 and 144) isolated from Guangdong Province). Tiamulin was used as the positive control in this experiment.
(§2) MIC values were tested following our previous work. The derivatives were dissolved in an aqueous solution of 2.5% tween-80 and 2.5% DMSO to make a solution with a concentration of 1000 µg/mL. The solution was diluted 12 times with MH broth to give a concentration range of 32–0.01 µg/mL. The bacteria (5 × 10^5 CFU/mL) were added in each well. For each compound concentration, three parallel experiments were set. The 96-well plate was incubated for 22–26 h at 37 °C. The MIC value was recorded as the minimal concentration that inhibits the visible growth of tested bacteria completely.
(§3) The MBC of these pleuromutilin derivatives were tested according to a previously reference. […] Then, the values of MBC were determined by laying 100 μL aliquots from the wells onto the MH agar plates without visible growth. The MH agar plate was cultured for a further 22–26 h at 37 °C.

S. aureus (ATCC 29213) = experiment: MIC and MBC, broth dilution, S. aureus ATCC 29213; assay type: cell-based; conditions: Staphylococcus aureus, ATCC29213
Experimental: as §1, §2, §3

S. aureus (AD3) = experiment: MIC and MBC, broth dilution, S. aureus AD3; assay type: cell-based; conditions: Staphylococcus aureus; S. aureus AD3 (clinical strain)
Experimental: as §1, §2, §3

[1] = test system: methicillin-resistant S. aureus (ATCC 43300); experiment: MIC and MBC, broth dilution, MRSA ATCC 43300; assay type: cell-based; conditions: Staphylococcus aureus
Experimental: as §1, §2, §3

50S ribosome = experiment: SPR interaction and affinity analysis; assay type: binding, S. aureus ATCC 43300; conditions: 4 °C; for Avg ka / Avg kd: 1:1 Langmuir binding; for Kd: KD = Kd/Ka
Experimental: S. aureus ATCC 43300 was used to prepare the 50S ribosomal subunit the same way as described previously. Cells were grown overnight in Brain Heart Infusion broth at 37 °C and harvested for 1.5 h at an OD600. Cells were washed with 10 mM Tris-HCl twice at pH = 7.5, and resuspended in 5 mL buffer A (20 mM HEPES-HCl pH = 7.5, 21 mM Mg(OAc)2, 100 mM NH4Cl, 1 mM DTT, 1 mM EDTA). Cells were broken by an ultrasound crusher. The lysate was centrifuged for 90 min at 20,000× g to clear cell debris.
The solution was layered on a sucrose cushion of 15 mL (10 mM Hepes-KOH pH 7.5, 25 mM Mg(OAc)2, 500 mM KCl, […], 1 mM DTT, 0.5 mM EDTA). Centrifugation was carried out for 15 h at 45,000 rpm using an ultracentrifuge Beckman (Beckman Coulter, Shanghai, China), Type 70Ti rotor. The crude ribosome pellet was resuspended in buffer E (10 mM Hepes-KOH pH 7.5, 10 mM Mg(OAc)2, 100 mM KCl, 1 mM DTT, 0.5 mM EDTA), then layered on 9 mL of 7–30% sucrose gradient and centrifuged in an ultracentrifuge Beckman, type SW40Ti rotor at 17,100 rpm for 15 h. The gradient was analyzed on the AKTA explorer system (Amersham, UK). The fractions corresponding to the 50S ribosomal subunit were collected and further subjected to precipitation by PEG 20,000. The 50S ribosomal subunit pellet was gently dissolved in 200 µL of storage buffer (10 mM HEPES-HCl pH = 7.5, 10 mM Mg(OAc)2, 15 mM KCl, 60 mM NH4Cl, 1 mM DTT) and stored at −80 °C.
SPR affinity analysis was performed on the bScreen LB 991 Label-free Microarray System (Berthold Technologies, Black Forest, Germany) at 4 °C and Biodot AD-1520 Array Printer (BIODOT Inc., Irvine, CA, USA) with a Photo-cross-linker SensorCHIP™. Concentrations of each compound were diluted to 100 μM with DMSO as the printing working solution for immobilization. A Biodot AD-1520 Array Printer (BIODOT Inc., CA, USA) was used to control the photo-cross-linker sensor chip and print samples. Each sample was printed four times. In order to check the chip quality and check whether the detection system works, DMSO was used as a system-negative control and rapamycin as a positive control. All positive control dots were divided into four groups and printed on the four corners of the sensor chip. The sensor chip was dried in vacuum after the array print and quickly transferred to a spectra radiator for a photo cross-linking reaction. The sensor chip was washed with C2H5OH, DMF and H2O in turn and evaporated in a N2 atmosphere for 15 min. Then, the Flowcell Cover were assembled.
The 50S ribosome was diluted separately to 200 nM, 400 nM, 800 nM, 1600 nM and 3200 nM with PBST (pH = 7.4, 0.1% Tween 20). Different concentrations of ribosome solutions were injected at a flow rate of 0.5 μL⋅s^−1 for 600 s at the associating stage at 4 °C, followed by PBST at a flow rate of 0.5⋅μL·s^−1 for 360 s at each dissociating stage. Then, the surface was regenerated with Glycine-HCl (pH = 2.0) at a flow rate of 2⋅μL·s^−1 for 300 s.
The raw data of the binding process of compounds and the 50S ribosome were recorded in real time. We compared the response unit (RU) of surface resonance to determine the different binding affinity between each sample dot. The process and analysis of association rate constants (Ka) and dissociation rate constants (Kd) and the equilibrium dissociation constant (KD, Kd/Ka) were performed using the data analysis software of the bScreen LB 991 Label-free Microarray System according to a single-site binding model (1:1 Langmuir binding) with mass transfer limitations for binding kinetics determination.

| Compound | MBC (S. aureus (144)) [µg/mL] | MIC (S. aureus (144)) [µg/mL] | MBC (S. aureus (ATCC 29213)) [µg/mL] | MIC (S. aureus (ATCC 29213)) [µg/mL] | MBC (S. aureus (AD3)) [µg/mL] | MIC (S. aureus (AD3)) [µg/mL] | melting point [°C] | MBC [1] [µg/mL] | MIC [1] [µg/mL] | Avg ka (50S ribosome) [M⁻¹ s⁻¹] | Avg kd (50S ribosome) [s⁻¹] | Kd (50S ribosome) [µM] |
| --- | --- | --- | --- | --- | --- | --- | --- | --- | --- | --- | --- | --- |
| C=C[C@]1(C)C[C@@H](OC(=O)CNCCCCCCCCCCCC)[C@]2(C)[C@H](C)CC[C@]3(CCC(=O)[C@H]32)[C@@H](C)[C@@H]1O [Compound 23, 22-Dodecylamineyl-22-deoxypleuromutilin] | > 32 | 32 (≈ 58.6 µM) | > 32 | 32 (≈ 58.6 µM) | > 32 | 32 (≈ 58.6 µM) | 75 to 77 | 32 (≈ 58.6 µM) | 32 (≈ 58.6 µM) | 24100 | 0.0011 | 0.0456 |
| C=C[C@]1(C)C[C@@H](OC(=O)CNCCS(C)(=O)=O)[C@]2(C)[C@H](C)CC[C@]3(CCC(=O)[C@H]32)[C@@H](C)[C@@H]1O [Compound 25, 22-(2-(Methylsulfonyl)ethylamineyl)-22-deoxypleuromutilin] | 8 (≈ 16.5 µM) | 4 (≈ 8.27 µM) | 2 (≈ 4.14 µM) | 2 (≈ 4.14 µM) | 4 (≈ 8.27 µM) | 2 (≈ 4.14 µM) | 183 to 186 | 2 (≈ 4.14 µM) | 1 (≈ 2.07 µM) | 2.70 | 0.00833 | 3080 |
| C=C[C@]1(C)C[C@@H](OC(=O)CNCCCC)[C@]2(C)[C@H](C)CC[C@]3(CCC(=O)[C@H]32)[C@@H](C)[C@@H]1O [Compound 21, 22-Butylamineyl-22-deoxypleuromutilin] | 8 (≈ 18.4 µM) | 8 (≈ 18.4 µM) | 4 (≈ 9.22 µM) | 4 (≈ 9.22 µM) | 8 (≈ 18.4 µM) | 4 (≈ 9.22 µM) | 74 to 75 | 4 (≈ 9.22 µM) | 2 (≈ 4.61 µM) | 4.24 | 0.0231 | 5440 |
| C=C[C@]1(C)C[C@@H](OC(=O)CNC23CC4CC(CC(C4)C2)C3)[C@]2(C)[C@H](C)CC[C@]3(CCC(=O)[C@H]32)[C@@H](C)[C@@H]1O [Compound 27, 22-Amantadineyl-22-deoxypleuromutilin] | 8 (≈ 15.6 µM) | 4 (≈ 7.82 µM) | 1 (≈ 1.95 µM) | 0.5 (≈ 0.977 µM) | 4 (≈ 7.82 µM) | 2 (≈ 3.91 µM) | 105 to 109 | 0.25 (≈ 0.489 µM) | 0.25 (≈ 0.489 µM) | 7.36 | 0.0215 | 2920 |
| C=C[C@]1(C)C[C@@H](OC(=O)CNCCc2ccccc2C)[C@]2(C)[C@H](C)CC[C@]3(CCC(=O)[C@H]32)[C@@H](C)[C@@H]1O [Compound 18, 22-(2-Methylphenethylamineyl)-22-deoxypleuromutilin] | 4 (≈ 8.07 µM) | 4 (≈ 8.07 µM) | 8 (≈ 16.1 µM) | 2 (≈ 4.03 µM) | 16 (≈ 32.3 µM) | 4 (≈ 8.07 µM) | 91 to 93 | 2 (≈ 4.03 µM) | 1 (≈ 2.02 µM) | 134 | 0.00445 | 33.2 |
| C=C[C@]1(C)C[C@@H](OC(=O)CNCCSC)[C@]2(C)[C@H](C)CC[C@]3(CCC(=O)[C@H]32)[C@@H](C)[C@@H]1O [Compound 26, 22-(2-(Methylthio)ethylamineyl)-22-deoxypleuromutilin] | 4 (≈ 8.86 µM) | 2 (≈ 4.43 µM) | 2 (≈ 4.43 µM) | 2 (≈ 4.43 µM) | 4 (≈ 8.86 µM) | 1 (≈ 2.21 µM) | 153 to 155 | 1 (≈ 2.21 µM) | 1 (≈ 2.21 µM) | 1.26 | 0.779 | – |
| C=C[C@]1(C)C[C@@H](OC(=O)CNc2cccc(Br)c2)[C@]2(C)[C@H](C)CC[C@]3(CCC(=O)[C@H]32)[C@@H](C)[C@@H]1O [Compound 12, 22-(3-Bromoanilineyl)-22-deoxypleuromutilin] | 2 (≈ 3.76 µM) | 1 (≈ 1.88 µM) | 0.5 (≈ 0.939 µM) | 0.25 (≈ 0.469 µM) | 1 (≈ 1.88 µM) | 0.25 (≈ 0.469 µM) | 161 to 163 | 0.25 (≈ 0.469 µM) | 0.12 (≈ 0.225 µM) | – | 6.25e-05 | 1.53 |
| C=C[C@]1(C)C[C@@H](OC(=O)CN2CCOCC2)[C@]2(C)[C@H](C)CC[C@]3(CCC(=O)[C@H]32)[C@@H](C)[C@@H]1O [Compound 29, 22-Morpholine-22-deoxypleuromutilin] | 4 (≈ 8.94 µM) | 2 (≈ 4.47 µM) | 2 (≈ 4.47 µM) | 2 (≈ 4.47 µM) | 8 (≈ 17.9 µM) | 2 (≈ 4.47 µM) | 157 to 159 | 1 (≈ 2.23 µM) | 1 (≈ 2.23 µM) | 1.57 | 0.872 | – |
| C=C[C@]1(C)C[C@@H](OC(=O)CNc2cccc(F)c2)[C@]2(C)[C@H](C)CC[C@]3(CCC(=O)[C@H]32)[C@@H](C)[C@@H]1O [Compound 8] | 0.5 (≈ 1.06 µM) | 0.25 (≈ 0.53 µM) | 0.25 (≈ 0.53 µM) | 0.12 (≈ 0.254 µM) | 0.5 (≈ 1.06 µM) | 0.12 (≈ 0.254 µM) | – | 0.12 (≈ 0.254 µM) | 0.03 (≈ 0.0636 µM) | – | – | – |
| C=C[C@]1(C)C[C@@H](OC(=O)CNCc2ccc(F)cc2)[C@]2(C)[C@H](C)CC[C@]3(CCC(=O)[C@H]32)[C@@H](C)[C@@H]1O [Compound 16, 22-(4-Fluorobenzylamineyl)-22-deoxypleuromutilin] | 32 (≈ 65.9 µM) | 16 (≈ 32.9 µM) | 32 (≈ 65.9 µM) | 16 (≈ 32.9 µM) | 16 (≈ 32.9 µM) | 8 (≈ 16.5 µM) | 76 to 77 | 8 (≈ 16.5 µM) | 4 (≈ 8.24 µM) | 2.04 | 0.00929 | 4560 |
| C=C[C@]1(C)C[C@@H](OC(=O)CN2CCSCC2)[C@]2(C)[C@H](C)CC[C@]3(CCC(=O)[C@H]32)[C@@H](C)[C@@H]1O [Compound 30, 22-Thiomorpholine-22-deoxypleuromutilin] | 4 (≈ 8.63 µM) | 2 (≈ 4.31 µM) | 2 (≈ 4.31 µM) | 1 (≈ 2.16 µM) | 4 (≈ 8.63 µM) | 1 (≈ 2.16 µM) | 82 to 83 | 2 (≈ 4.31 µM) | 1 (≈ 2.16 µM) | – | 0.00021 | 7.77 |
| penicillin [reference compound] | – | – | – | – | – | – | – | – | – | 2.10 | 0.515 | – |
